Legend:
Test in all cases: Test E greenhouse herbicide test, pre- and postemergence
Format in all cases: in vivo
[1] = test system: Italian ryegrass (Lolium multiflorum)
Outline: (§1)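 Scores (0–100, visual, vs controls) reflect greenhouse growth of 14 to 21 d after treatment. Application was pre-emergence to silt loam or post-emergence at the 1- to 4-leaf stage.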

[2] = test system: arrowleaf sida (Sida rhombifolia)
Outline: as §1

[3] = test system: beggarticks (hairy beggarticks, Bidens pilosa)
Outline: as §1

corn (Zea mays) = test system: corn (Zea mays)
Outline: as §1

[4] = test system: crabgrass, large (large crabgrass, Digitaria sanguinalis); conditions: Preemergence
Outline: as §1

[5] = test system: field bindweed (Convolvulus arvensis)
Outline: as §1

[6] = test system: foxtail, giant (giant foxtail, Setaria faberii); conditions: Preemergence
Outline: as §1

[7] = test system: foxtail, green (green foxtail, Setaria viridis); conditions: Preemergence
Outline: as §1

[8] = test system: horseweed (Conyza canadensis); conditions: Postemergence
Outline: as §1

[9] = test system: lambsquarters (Chenopodium album); conditions: Preemergence
Outline: as §1

[10] = test system: momingglory (Ipomoea coccinea); conditions: Preemergence
Outline: as §1

[11] = test system: nightshade (eastern black nightshade, Solanum ptycanthum); conditions: Preemergence
Outline: as §1

[12] = test system: panicum, fall (fall panicum, Panicum dichotomiflorum)
Outline: as §1

[13] = test system: ragweed (common ragweed, Ambrosia elatior)
Outline: as §1

[14] = test system: sandbur (southem sandbur, Cenchrus echinatus)
Outline: as §1

[15] = test system: velvetleaf (Abutilon theophrasti); conditions: Preemergence
Outline: as §1

[16] = 62 g ai/ha, Postemergence, scale 0 to 100 (0 no effect, 100 complete control)
[17] = 62 g ai/ha, Preemergence, scale 0 to 100 (0 no effect, 100 complete control)
[18] = 125 g ai/ha, Postemergence, scale 0 to 100 (0 no effect, 100 complete control)
[19] = 125 g ai/ha, Preemergence, scale 0 to 100 (0 no effect, 100 complete control)
[20] = 250 g ai/ha, Postemergence, scale 0 to 100 (0 no effect, 100 complete control)
[21] = Postemergence, 31 g ai/ha, visual, scale 0 no effect to 100 complete control
[22] = Preemergence, 31 g ai/ha, scale 0 to 100, 0 no effect, 100 complete control
[23] = Preemergence, 250 g ai/ha, visual, scale 0 no effect to 100 complete control
[24] = Preemergence, 125 g ai/ha, visual, scale 0 no effect to 100 complete control
[25] = 62 g ai/ha, scale 0 to 100 (0 no effect, 100 complete control)
[26] = 31 g ai/ha, scale 0 to 100, 0 no effect, 100 complete control
[27] = 125 g ai/ha, visual, scale 0 no effect to 100 complete control
[28] = 250 g ai/ha, visual, scale 0 no effect to 100 complete control
[29] = 125 g ai/ha, scale 0 to 100 (0 no effect, 100 complete control)
[30] = 31 g ai/ha, visual, scale 0 no effect to 100 complete control
[31] = Postemergence, 16 g ai/ha, visual, scale 0 no effect to 100 complete control
[32] = Preemergence, 16 g ai/ha, scale 0 to 100, 0 no effect, 100 complete control
[33] = 16 g ai/ha, scale 0 to 100, 0 no effect, 100 complete control

CCc1sc2c(C)cc(C)cc2c1-c1c(O)c(C)nn(C)c1=O [Compound 57]
98: Plant response rating, Field Bindweed [5, 18] | Plant response rating, Field Bindweed [5, 24] | Plant response rating, Nightshade [11, 25] | Plant response rating, Nightshade [11, 29] | Plant response rating, Nightshade [11, 28] | Plant response rating, Panicum, Fall [12, 17]
100: Plant response rating, Beggarticks [3, 16] | Plant response rating, Beggarticks [3, 17] | Plant response rating, Beggarticks [3, 18] | Plant response rating, Beggarticks [3, 20] | Plant response rating, Beggarticks [3, 21] | Plant response rating, Beggarticks [3, 22] | Plant response rating, Beggarticks [3, 24] | Plant response rating, Beggarticks [3, 23] | Plant response rating, Field Bindweed [5, 23] | Plant response rating, Foxtail, Green [7, 28] | Plant response rating, Lambsquarters [9, 25] | Plant response rating, Lambsquarters [9, 26] | Plant response rating, Lambsquarters [9, 27] | Plant response rating, Lambsquarters [9, 28] | Plant response rating, Morningglory [10, 29] | Plant response rating, Morningglory [10, 28] | Plant response rating, Panicum, Fall [12, 19] | Plant response rating, Panicum, Fall [12, 23] | Plant response rating, Ragweed [13, 17] | Plant response rating, Ragweed [13, 19] | Plant response rating, Ragweed [13, 23] | Plant response rating, Velvetleaf [15, 28]
30: Plant response rating, Sandbur [14, 19] | Plant response rating, Velvetleaf [15, 26]
65: Plant response rating, Ryegrass, Italian [1, 19] | Plant response rating, Sandbur [14, 18] | Plant response rating, Velvetleaf [15, 25]
75: Plant response rating, Horseweed [8, 25] | Plant response rating, Horseweed [8, 29]
90: Plant response rating, Foxtail, Green [7, 27] | Plant response rating, Nightshade [11, 26] | Plant response rating, Ragweed [13, 22]
40: Plant response rating, Arrowleaf Sida [2, 18] | Plant response rating, Arrowleaf Sida [2, 23] | Plant response rating, Morningglory [10, 25] | Plant response rating, Panicum, Fall [12, 21]
95: Plant response rating, Field Bindweed [5, 16] | Plant response rating, Field Bindweed [5, 17] | Plant response rating, Field Bindweed [5, 20] | Plant response rating, Foxtail, Giant [6, 27] | Plant response rating, Foxtail, Giant [6, 28] | Plant response rating, Panicum, Fall [12, 22] | Plant response rating, Ragweed [13, 18] | Plant response rating, Ragweed [13, 20] | Plant response rating, Velvetleaf [15, 29]
20: Plant response rating, Ryegrass, Italian [1, 18] | Plant response rating, Arrowleaf Sida [2, 16] | Plant response rating, Foxtail, Green [7, 25]
15: Plant response rating, Corn (corn (Zea mays); [18]) | Plant response rating, Corn (corn (Zea mays); [20]) | Plant response rating, Corn (corn (Zea mays); [21])
80: Plant response rating, Ryegrass, Italian [1, 23] | Plant response rating, Horseweed ([8]; 250 g ai/ha, scale 0 to 100 (0 no effect, 100 complete control)) | Plant response rating, Panicum, Fall [12, 20] | Plant response rating, Sandbur [14, 23]
60: Plant response rating, Horseweed [8, 30] | Plant response rating, Panicum, Fall [12, 16] | Plant response rating, Ragweed [13, 16] | Plant response rating, Sandbur [14, 16]
50: Plant response rating, Ryegrass, Italian [1, 20] | Plant response rating, Arrowleaf Sida [2, 24] | Plant response rating, Ragweed [13, 21] | Plant response rating, Sandbur [14, 21]
35: Plant response rating, Ryegrass, Italian [1, 17] | Plant response rating, Foxtail, Giant [6, 25]
45: Plant response rating, Arrowleaf Sida [2, 20]
0: Plant response rating, Ryegrass, Italian [1, 16] | Plant response rating, Ryegrass, Italian [1, 21] | Plant response rating, Arrowleaf Sida [2, 17] | Plant response rating, Arrowleaf Sida [2, 22] | Plant response rating, Corn (corn (Zea mays); [17]) | Plant response rating, Corn (corn (Zea mays); [22]) | Plant response rating, Corn (corn (Zea mays); [24]) | Plant response rating, Corn (corn (Zea mays); [23]) | Plant response rating, Crabgrass, Large [4, 25] | Plant response rating, Crabgrass, Large [4, 26] | Plant response rating, Crabgrass, Large [4, 27] | Plant response rating, Crabgrass, Large [4, 28] | Plant response rating, Foxtail, Green [7, 26] | Plant response rating, Sandbur [14, 17] | Plant response rating, Sandbur [14, 22]
85: Plant response rating, Field Bindweed [5, 21] | Plant response rating, Morningglory [10, 26]
70: Plant response rating, Field Bindweed [5, 22] | Plant response rating, Panicum, Fall [12, 18] | Plant response rating, Sandbur [14, 20]
5: Plant response rating, Foxtail, Giant [6, 26]
10: Plant response rating, Ryegrass, Italian [1, 22] | Plant response rating, Arrowleaf Sida [2, 21] | Plant response rating, Corn (corn (Zea mays); [16])

Cc1ccc2sc(C)c(-c3c(OC(=O)OC(C)C)c(C)nn(C)c3=O)c2c1 [Compound 66]
100: Plant response rating, Ryegrass, Italian [1, 19] | Plant response rating, Beggarticks [3, 18] | Plant response rating, Beggarticks [3, 19] | Plant response rating, Lambsquarters [9, 25] | Plant response rating, Lambsquarters [9, 29] | Plant response rating, Nightshade [11, 29] | Plant response rating, Ragweed [13, 19]
20: Plant response rating, Ryegrass, Italian [1, 31] | Plant response rating, Corn (corn (Zea mays); [19]) | Plant response rating, Velvetleaf [15, 25]
98: Plant response rating, Panicum, Fall [12, 19]
10: Plant response rating, Corn (corn (Zea mays); [16]) | Plant response rating, Panicum, Fall [12, 32] | Plant response rating, Sandbur [14, 17]
75: Plant response rating, Beggarticks [3, 31] | Plant response rating, Ragweed [13, 31]
5: Plant response rating, Field Bindweed [5, 22] | Plant response rating, Foxtail, Giant [6, 26] | Plant response rating, Lambsquarters [9, 33]
30: Plant response rating, Ryegrass, Italian [1, 21] | Plant response rating, Arrowleaf Sida [2, 31] | Plant response rating, Morningglory [10, 25] | Plant response rating, Panicum, Fall [12, 31]
35: Plant response rating, Foxtail, Green [7, 25]
40: Plant response rating, Ryegrass, Italian [1, 16] | Plant response rating, Ryegrass, Italian [1, 32] | Plant response rating, Arrowleaf Sida [2, 17] | Plant response rating, Arrowleaf Sida [2, 21] | Plant response rating, Field Bindweed [5, 19] | Plant response rating, Foxtail, Giant [6, 25] | Plant response rating, Morningglory [10, 29] | Plant response rating, Sandbur [14, 21]
15: Plant response rating, Corn (corn (Zea mays); [18]) | Plant response rating, Crabgrass, Large [4, 29] | Plant response rating, Nightshade [11, 25]
90: Plant response rating, Ryegrass, Italian [1, 17] | Plant response rating, Beggarticks [3, 16] | Plant response rating, Foxtail, Giant [6, 29] | Plant response rating, Horseweed [8, 25] | Plant response rating, Horseweed [8, 29] | Plant response rating, Lambsquarters [9, 26] | Plant response rating, Ragweed [13, 17] | Plant response rating, Ragweed [13, 18]
50: Plant response rating, Ryegrass, Italian [1, 18] | Plant response rating, Field Bindweed [5, 17] | Plant response rating, Sandbur [14, 16]
25: Plant response rating, Ragweed [13, 32] | Plant response rating, Sandbur [14, 31]
70: Plant response rating, Arrowleaf Sida [2, 18] | Plant response rating, Beggarticks [3, 22] | Plant response rating, Field Bindweed [5, 31] | Plant response rating, Foxtail, Green [7, 29] | Plant response rating, Panicum, Fall [12, 16] | Plant response rating, Panicum, Fall [12, 21] | Plant response rating, Sandbur [14, 19]
95: Plant response rating, Beggarticks [3, 17] | Plant response rating, Panicum, Fall [12, 17]
0: Plant response rating, Arrowleaf Sida [2, 32] | Plant response rating, Arrowleaf Sida [2, 22] | Plant response rating, Corn (corn (Zea mays); [17]) | Plant response rating, Corn (corn (Zea mays); [31]) | Plant response rating, Corn (corn (Zea mays); [21]) | Plant response rating, Corn (corn (Zea mays); [32]) | Plant response rating, Corn (corn (Zea mays); [22]) | Plant response rating, Crabgrass, Large [4, 25] | Plant response rating, Crabgrass, Large [4, 33] | Plant response rating, Crabgrass, Large [4, 26] | Plant response rating, Field Bindweed [5, 32] | Plant response rating, Foxtail, Giant [6, 33] | Plant response rating, Foxtail, Green [7, 33] | Plant response rating, Foxtail, Green [7, 26] | Plant response rating, Morningglory [10, 33] | Plant response rating, Morningglory [10, 26] | Plant response rating, Nightshade [11, 33] | Plant response rating, Nightshade [11, 26] | Plant response rating, Sandbur [14, 32] | Plant response rating, Sandbur [14, 22] | Plant response rating, Velvetleaf [15, 33] | Plant response rating, Velvetleaf [15, 26]
60: Plant response rating, Arrowleaf Sida [2, 16] | Plant response rating, Field Bindweed [5, 21] | Plant response rating, Horseweed ([8]; 16 g ai/ha, visual, scale 0 no effect to 100 complete control) | Plant response rating, Panicum, Fall [12, 22] | Plant response rating, Sandbur [14, 18]
65: Plant response rating, Ryegrass, Italian [1, 22] | Plant response rating, Arrowleaf Sida [2, 19] | Plant response rating, Beggarticks [3, 32] | Plant response rating, Ragweed [13, 22]
80: Plant response rating, Beggarticks [3, 21] | Plant response rating, Field Bindweed [5, 16] | Plant response rating, Field Bindweed [5, 18] | Plant response rating, Horseweed [8, 30] | Plant response rating, Panicum, Fall [12, 18] | Plant response rating, Ragweed [13, 16] | Plant response rating, Ragweed [13, 21] | Plant response rating, Velvetleaf [15, 29]

From US10597388B2, “Pyridazinone herbicides” (FMC CORPORATION, priority 2014, dated 2020)
